The values below come from US11730725B2 (Tesaro, Inc., priority 2017, dated 2023).

For data set [1] the following is noted: drug substance, crystalline solid.
The subject of data set [2] is platinum-sensitive recurrent epithelial ovarian, fallopian tube, or primary peritoneal cancer. To be noted: niraparib vs placebo. From the text:
All patients had received at least two prior platinum-containing regimens and were in response (complete or partial) to their most recent platinum-based regimen. Eligible patients were assigned to one of two cohorts based on the results of a germline BRCA mutation test. […] Randomization occurred within 8 weeks of the last dose of the most recent platinum-containing regimen. […] Clinic visits occurred each cycle (4 weeks±3 days). […] Prior to unblinding of the study, tumors of patients randomized to the non-gBRCAmut cohort were tested for the presence of homologous recombination deficiency (HRD) using the Myriad myChoice® HRD test, which evaluates three independent biomarkers of tumor genome instability: loss of heterozygosity, telomeric allelic imbalance, and large-scale state transitions. Tumors with homologous recombination deficiencies and those with somatic BRCA mutations were defined as HRD positive (HRDpos). The primary efficacy analysis for PFS was prospectively defined and assessed for the gBRCAmut cohort. The primary efficacy analysis for PFS was prospectively defined and assessed for the non-gBRCAmut cohort with a hierarchical testing schema. In the first step, PFS was assessed in the group of patients with HRDpos tumors and if significant, PFS was assessed in the overall non-gBRCAmut cohort. Secondary efficacy endpoints included chemotherapy-free interval (CFI), time to first subsequent therapy (TFST), PFS after the first subsequent therapy (PFS2), time to second subsequent therapy (TSST) and OS (overall survival).

Data set [3] concerns tumor models.
The subject of data set [4] is tumor models. Kind of data set: animal or person. To be noted: read-out: PARP inhibition.

Read-outs that look alike come from different tables or passages of the source.

Turning to `Cc1ccc(S(=O)(=O)O)cc1.NC(=O)c1cccc2cn(-c3ccc([C@@H]4CCCNC4)cc3)nc12` [Niraparib tosylate monohydrate, 2-{4-[(3S)-piperidin-3-yl]phenyl}-2H-indazole 7-carboxamide 4-methylbenzenesulfonate hydrate (1:1:1)], in data set [1], the hygroscopicity entry was “non-hygroscopic”.
In the case of `NC(=O)c1cccc2cn(-c3ccc([C@@H]4CCCNC4)cc3)nc12` [Niraparib], the figures for the “CFI HR” value in data set [2] (gBRCAmut cohort) and in data set [2] (non-gBRCAmut cohort) were 0.26 and 0.50, respectively. Besides, the “TFST HR” value in data set [2] (gBRCAmut cohort) was found to be 0.31; in data set [2] (non-gBRCAmut cohort) it was 0.55. In addition, the tumor regression result in the data set with tumor models [3] (50 mg/kg, daily dosing) is listed as “tumor regression”; in the data set with tumor models [3] (dose of 75 mg/kg, same model), “did not result in tumor regression”; with tumor models [3] (dosing switched from 75 mg/kg to 50 mg/kg), “tumor regression was achieved”. Moreover, the inhibition at 50 mg/kg in the data set on tumor models [4] was above 90%.
